Here are results for eleven compounds from patent publication US20060009452A1, “Therapeutic targeting of PARC/CCL18 and its signaling in pulmonary fibrosis” (priority 2004, published 2006).

Entries after “also recorded” stand apart in the source; their conditions may differ. *1 amine or outer side, *2 acyl side, *3 side chain or, on linkers, in order; H or OH if unused. Where a SMILES comes first, the peptide text is derived from it. Bridges are numbered along the chain shown (N, C = ends). Roman numbers before positions name the chains, in order. [ ]: non-standard residue; d: D form. Actinocin(9to1) = Cc1c2oc3c(C)ccc(C(=O)[*:1])c3nc-2c(C(=O)[*:2])c(N)c1=O; NMeV = CN[C@H](C(=O)O)C(C)C; Sar = CNCC(=O)O

Assay [1] has as its system lung fibroblasts. The assay is described as follows: Western blotting of fibroblast culture supernatants for collagen type I / α1(I). The format is cell-based, human. The conditions noted are these: lung fibroblast cultures, 48 h; for effect on TGF-β-stimulated collagen production: inhibitor plus TGF-β; for effect on PARC-stimulated collagen production: inhibitor plus PARC. The method, then:
Collagen Production Assays. Collagen was quantified as described elsewhere (Atamas S P et al.). Briefly, fibroblasts were cultured with β-aminopropionitrile (Sigma) to prevent collagen cross-linking, and Western blotting assays for collagen were performed using rabbit affinity purified anti-collagen type I antibody (Rockland, Gilbertsville, Pa.). Before electrophoresis, samples were reduced and denatured by boiling in Laemmli buffer containing β-mercaptoethanol. Human purified collagen type I (Southern Biotech, Birmingham, Ala.) was used as a positive control in these assays. The identity of collagen bands was confirmed by sensitivity to pepsin and collagenase (both from Sigma) digestion, as described (Atamas S P et al.). Under these conditions, pro-collagen appears as a single or double band around 175 kDa (Gaidarova S et al., Stefanovic B et al.). Images were collected using a Storm densitometer and band densities analyzed with ImageQuant software (Molecular Dynamics, Sunnyvale, Calif.).
Western blotting assays for collagen were performed using rabbit affinity purified anti-collagen type I antibody (Rockland, Gilbertsville, Pa.). Before electrophoresis, samples were reduced and denatured by boiling in Laemmli buffer containing β-mercaptoethanol. Human purified collagen type I (Southern Biotech, Birmingham, Ala.) was used as a positive control in these assays.
Collagen was quantified by Western blotting and the identity of collagen bands was confirmed by sensitivity to pepsin and collagenase digestion as described elsewhere in Atamas et al. (Am. J. Respir. Cell. Mol., 29:743-749 (2003)). In these assays, pro-collagen appears as a single or double band with a molecular weight of approximately 175 kDa (4,27,28).
(In western blotting, separated proteins are transferred to a membrane and probed.)

Assay [2] concerns lung fibroblasts. The assay is described as follows: Collagen production, metabolic labeling with 14C-proline, PAGE and autoradiography. The format is cell-based, human. The settings on record: for effect on PARC activated collagen production: LF2 lung fibroblasts, 14C-proline. The method, then:
Collagen Production Assays. Production of collagen was assessed using metabolic labeling with ^14C-proline and Western blotting with anti-collagen type I antibody. For metabolic labeling of collagen, fibroblasts were plated at 2×10^5 cells/well in 6-well plates (Costar, Cambridge, Mass.), in duplicates, incubated overnight in 3 ml/well of high serum medium, and then for 24 h in low-serum medium. After that, the culture medium was replaced with 1 ml/well of fresh low serum medium with or without added test substances and containing ^14C-proline at 1 μCi/ml (Amersham Pharmacia Biotech). After incubation for the desired periods of time, the cell culture supernatants were collected, rapidly frozen in liquid nitrogen and freeze-dried at −70° C. The pellets were dissolved in 100 μl of reducing Laemmli buffer per 1 ml of the cell culture supernatant, and the samples were electrophoretically separated in 7.5% acrylamide gels. Alternatively, samples were concentrated 10-fold by filter centrifugation on 30K Ultrafree-MC filters (Millipore, Bedford, Mass.). Fluorographic images were developed using EN[3H]ANCE autoradiography enhancer (NEN, Boston, Mass.). Gel images were acquired using Storm densitometer (Molecular Dynamics, Sunnyvale, Calif.), and the densities of the bands were analyzed with ImageQuant software (Molecular Dynamics). Dependence of collagen production by fibroblast cultures on the dose of PARC and duration of stimulation were evaluated using one-way ANOVA with post hoc testing.
The identity of collagen bands was confirmed by sensitivity to pepsin and collagenase (both from Sigma) digestion. For pepsin digestion, 2 μl of 1 Macetic acid were added to 40 μl of concentrated fibroblast culture supernatant, followed by 1 μl of pepsin stock, to achieve final concentration of pepsin as indicated in the text. After 15 min of digestion at room temperature, reaction was stopped with 4 μl of 1 M Tris base and 40 μl of reducing Laemmli buffer. For collagenase digestion, 1 μl of 4 U/ml bacterial collagenase and 1 μl of protease inhibitor cocktail (Sigma) were added to 40 μl of sample and digestion performed at room temperature for 30 min. The bacterial collagenase was highly purified and had minimal clostripain and neutral protease activity, as tested by the manufacturer, according to the product information sheet.
To test effects of rhPARC on collagen protein production by lung and dermal fibroblast cell lines, fibroblast cultures were incubated for 48 h with or without 30 ng/ml and 300 ng/ml rhPARC in the low-serum cell culture medium containing 14Cproline for metabolic labeling of collagen. Fibroblast culture supernatants contained two 14C-proline containing bands in gel electrophoresis under reducing conditions (FIGS. 13A and 13B). Digestion with chromatographically pure bacterial collagenase in the presence of protease inhibitors eliminated the bands completely (FIG. 13A). To confirm the identity of these bands, we conducted Western blotting experiments in reducing conditions of fibroblast culture supernatants using an anti-collagen type I antibody, that recognizes α1(I) collagen but not other collagen chains. Digestion with pepsin caused expected decrease in the apparent molecular weight of the immunoreactive collagen from ˜175 kD to ˜125 kD (FIG. 13C).

A further assay has as its system α2(I) collagen mRNA. The assay is described as follows: Real-time PCR for α2(I) collagen mRNA relative to 18S rRNA. Type of assay: cell-based, human. The settings on record: 10 μg/ml actinomycin D before stimulation with PARC.
The target of assay [3] is Autocrine (active) TGF-β secreted by human primary lung fibroblast cultures (human). The assay is described as follows: cell-based or functional assay.
Another assay relates to fibroblasts. The settings on record: reported for MCP-1; cited from earlier work.
Another assay deals with Smad3. The assay is described as follows: Smad3 immunoprecipitation and phosphorylation Western blot. Type of assay: cell-based, human. The settings on record: fibroblasts activated with cytokine. As to the method: To determine if PARC stimulated phosphorylation of Sp1 and Smad3, these factors were immunoprecipitated from lysates of fibroblasts that had been activated with recombinant human PARC for up to 24 hours, and the levels of their phosphorylation were tested in Western blotting assays using anti-phosphoserine and anti-phospho-Smad2/3 antibodies. Equal loading was controlled by stripping the membranes and re-developing them with anti-Sp1, anti-Smad3 and anti-Smad2/3 antibodies (FIG. 17).
Preparation of fibroblast lysates, immunoprecipitation of Sp1 and Smad2/3, normalization of protein concentration in the samples with BioRad assays, electrophoretic separation, Western blotting, membrane stripping and re-development with different antibodies were performed as described in Atamas et al. (Am. J. Respir. Cell. Mol., 29:743-749 (2003); J. Immunol. 168: 1139-1145 (2002); and Arthritis Rheum., 42:1168-1178 (1999)), which are hereby incorporated by reference. Rabbit antibodies for total Smad2/3 and Sp1 were from Upstate (Waltham, Masss.). Antiphospho-Smad2/3 antibody and goat antibody for total Smad3 were from Santa Cruz Biotechnology (Santa Cruz, Calif.), as was anti-gp130 antibody used to confirm equal loading of the samples. Antiphosphoserine antibody was from Biomol (Plymouth Meeting, Pa.).

Another assay has as its system ERK1/2. The assay can be described thus: Immunoblotting for phosphorylation of ERK1/2. Type of assay: cell-based, human. The conditions noted are these: LF1, rhPARC 15 min, toxin 10 ng/ml.
[4] abbreviates: listed as Recombinant latency-associated peptide.

Turning to `NC(=O)c1ccc(-c2nc(-c3ccc4c(c3)OCO4)c(-c3ccccn3)[nH]2)cc1` [SB431542, reference compound], the “effect on TGF-β-stimulated collagen production” value in the assay with lung fibroblasts [1] is listed as “blocked TGF-β-stimulated; also recorded: abrogated TGF-β-stimulated”.

In the case of “rhIL-4: recombinant human interleukin 4 purchased from R&D Systems”, the “combined density of procollagen bands, fold higher than non-stimulated control” value with lung fibroblasts [2] (LF2 cells, 10 ng/ml rhIL-4, 48 h) was 2.9 fold.

For the compound `COc1cccc(-c2cc(=O)c3ccccc3o2)c1N` [PD98059, reference compound], the “effect on PARC activated collagen production” value with lung fibroblasts [2] is “inhibited PARC activated collagen production”. Regarding `Cc1c2oc3c(C)ccc(C(=O)N[C@@H]4C(=O)N[C@H](C(C)C)C(=O)N5CCC[C@H]5C(=O)N(C)CC(=O)N(C)[C@@H](C(C)C)C(=O)O[C@@H]4C)c3nc-2c(C(=O)N[C@@H]2C(=O)N[C@H](C(C)C)C(=O)N3CCC[C@H]3C(=O)N(C)CC(=O)N(C)[C@@H](C(C)C)C(=O)O[C@@H]2C)c(N)c1=O` [actinomycin D, Actinomycin D, reference compound] (I: T[dV]P[Sar][NMeV] / II: T[dV]P[Sar][NMeV]; ester I:1-I:C, II:1-II:C; linker I:N-II:N via Actinocin(9to1)), in the assay with α2(I) collagen mRNA, the “effect on PARC-induced increase in collagen mRNA” value is listed as “completely abrogated the increase in collagen mRNA”.

The compound “Neutralizing anti-pan-TGF-β antibody, monoclonal mouse IgG1 clone 1D11 (R&D Systems)” had a mink lung epithelial cell proliferation (thymidine incorporation); antibody concentration that abrogates the inhibition in assay [3] of 1 µg/mL. Consider “MCP-1: CC chemokine known to induce collagen production in pulmonary fibroblasts through autocrine TGF-β”, for which, in the assay on fibroblasts, the “concentration stimulating detectable collagen production” value is 100 to 400 ng/mL.

Regarding “rhLAP: Latency-associated peptide (R&D Systems) used for TGF-β neutralization”, the “effect on PARC-stimulated collagen production” value in the assay with lung fibroblasts [1] (setting [4]) is given as “failed to block the effect of PARC”. In addition, the “effect on TGF-β-stimulated collagen production” value is “inhibited stimulating effect of TGF-β” in the assay on lung fibroblasts [1], “inhibited stimulating effect of TGF-β” in the assay with lung fibroblasts [1] (listed as Recombinant human LAP) and “inhibited the effect of TGF-β” in the assay on lung fibroblasts [1] (setting [4]).

Take Aprotinin [reference compound]: in the assay with lung fibroblasts [1], the “effect on PARC-stimulated collagen production” value is listed as “failed to inhibit the effect of PARC” and the “effect on TGF-β-stimulated collagen production” value is given as “had no effect on collagen production”. For “rhTGF-β1: Recombinant human TGF-β1 from R&D Systems, positive control for fibroblast stimulation”, in the assay on Smad3, the “phosphorylation of immunoprecipitated Smad3” value is “increased phosphorylation of Smad3”. For Bordetella PT [reference compound], in the assay with ERK1/2, the “effect on PARC-stimulated ERK phosphorylation” value is recorded as “inhibited phosphorylation of ERK; also recorded: block PARC-stimulated ERK phosphorylation”. With `C[S+]([O-])c1ccc(-c2nc(-c3ccncc3)c(-c3ccc(F)cc3)[nH]2)cc1` (stereo not drawn) [SB203580, reference compound], the “effect on PARC activated collagen production” value in the assay with lung fibroblasts [2] was “had no effect”.
